{"source": "paper PMC3880142", "about": "(ACS chemical biology, 2013)", "biological_target": "T1, CadD (Leptospira interrogans, UniProt Q72V44)", "T1 sequence (Q72V44 1-442)": "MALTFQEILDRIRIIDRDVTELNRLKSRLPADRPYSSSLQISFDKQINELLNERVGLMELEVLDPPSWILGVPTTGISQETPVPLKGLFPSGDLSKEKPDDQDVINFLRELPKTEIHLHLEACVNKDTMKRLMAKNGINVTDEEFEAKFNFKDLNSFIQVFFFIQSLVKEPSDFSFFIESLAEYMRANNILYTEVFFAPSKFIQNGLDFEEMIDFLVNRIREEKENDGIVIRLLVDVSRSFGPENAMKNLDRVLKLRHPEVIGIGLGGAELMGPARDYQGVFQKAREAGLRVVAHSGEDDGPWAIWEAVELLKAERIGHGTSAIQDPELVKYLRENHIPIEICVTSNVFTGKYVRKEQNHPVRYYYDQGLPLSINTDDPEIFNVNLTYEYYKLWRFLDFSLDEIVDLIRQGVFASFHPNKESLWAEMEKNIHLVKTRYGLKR", "assay": "UV spectrophotometric cAMP deamination at […] nm, inhibition", "type": "biochemical", "data": [{"smiles": "O=P1(O)OC[C@H]2O[C@@H](n3cnc4cncnc43)[C@H](O)[C@@H]2O1", "note": "[cPuMP]", "values": [{"measurement": "Ki", "value": "1300 ± 500", "unit": "nM"}]}]}
